Assays:
Human β2 adrenoceptor = molecular target: T1, Human β2 adrenoceptor (Homo sapiens, UniProt P07550); experiment: β2 Adrenoceptor Radioligand Binding Assay; settings: human β2 adrenoceptor membranes, 125-I Cyanopindolol; read-out: B2 binding affinity (Ki class)
T1 construct: purchased Perkin Elmer
Protocol: β2 Adrenoceptor Radioligand Binding Assay
The assay was carried out in 96-well polypropylene plates in a volume of 200 ul. The assay buffer used was 25 mM HEPES, 0.5% BSA (w/v), 1 mM EDTA, 0.02% ascorbic acid (v/v), (pH 7.4). The final assay concentration of DMSO was 0.5% (v/v). The plates were sealed and incubated for 1 h at room temperature on an orbital shaker (slow speed). Membranes were harvested onto 96-well unifilter GF/C filter plates pre-treated with 0.5% polyethyleneimine (v/v), using a filter manifold, washed six times with 200 ul of wash buffer containing 10 mM HEPES and 500 mM NaCl. The plates were dried before addition of 50 μl of microscint-0, sealed then read in a Trilux Microbeta scintillation counter. IC50 values are determined from competition curves using a non-linear curve fitting program. Ki values were calculated from IC50 values by the Cheng and Prusoff equation.

Human M3 receptor = molecular target: T2, Human M3 receptor (Homo sapiens, UniProt P20309); experiment: M3 Receptor Radioligand Binding Assay; settings: human M3 receptor membranes, [3H]-N-methyl scopolamine; read-out: M3 binding affinity (Ki class)
T2 construct: purchased Perkin Elmer
T2 sequence (P20309 whole entry): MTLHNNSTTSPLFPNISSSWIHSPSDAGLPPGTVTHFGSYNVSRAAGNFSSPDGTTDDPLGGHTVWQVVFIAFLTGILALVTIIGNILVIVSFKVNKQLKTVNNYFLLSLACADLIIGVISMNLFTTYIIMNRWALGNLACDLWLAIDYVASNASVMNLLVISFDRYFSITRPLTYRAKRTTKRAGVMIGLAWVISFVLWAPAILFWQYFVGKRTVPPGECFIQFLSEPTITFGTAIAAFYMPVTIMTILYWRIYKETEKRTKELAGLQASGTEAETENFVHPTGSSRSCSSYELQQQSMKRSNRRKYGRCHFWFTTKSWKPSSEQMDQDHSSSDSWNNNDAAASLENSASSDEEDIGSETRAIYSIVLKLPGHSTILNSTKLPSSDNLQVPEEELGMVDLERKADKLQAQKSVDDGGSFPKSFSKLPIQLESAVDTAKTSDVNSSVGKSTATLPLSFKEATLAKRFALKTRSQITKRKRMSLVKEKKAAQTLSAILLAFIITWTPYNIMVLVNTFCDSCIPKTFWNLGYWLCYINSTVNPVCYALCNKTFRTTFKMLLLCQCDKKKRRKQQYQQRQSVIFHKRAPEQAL
Protocol: Biological Characterization M3 Receptor Radioligand Binding Assay
The assay was carried out in 96-well polypropylene plates in a volume of 250 ul. […] The final assay concentration of DMSO was 0.5% (v/v). The plates were sealed and incubated for 2 h at room temperature on an orbital shaker (slow speed). Membranes were harvested onto 96-well unifilter GF/C filter plates pre-treated with 0.5% polyethyleneimine (v/v), using a filter manifold, washed four times with 200 ul of assay buffer. The plates were dried before addition of 50 μl of microscint-0, sealed then read in a Trilux Microbeta scintillation counter.

T1 sequence (P07550 whole entry): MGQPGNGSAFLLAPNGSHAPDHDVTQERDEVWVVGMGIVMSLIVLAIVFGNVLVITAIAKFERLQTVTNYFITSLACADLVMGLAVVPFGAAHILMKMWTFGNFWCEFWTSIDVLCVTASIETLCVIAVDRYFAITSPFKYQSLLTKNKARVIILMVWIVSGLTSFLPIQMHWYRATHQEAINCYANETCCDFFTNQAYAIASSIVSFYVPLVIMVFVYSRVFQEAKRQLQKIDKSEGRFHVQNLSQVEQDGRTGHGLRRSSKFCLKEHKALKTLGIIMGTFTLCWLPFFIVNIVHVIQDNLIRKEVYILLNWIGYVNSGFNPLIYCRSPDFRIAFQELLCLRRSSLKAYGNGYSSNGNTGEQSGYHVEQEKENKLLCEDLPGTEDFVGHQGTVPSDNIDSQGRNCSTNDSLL

Row | SMILES | Ki (Human β2 adrenoceptor) | Ki (Human M3 receptor)
1 | O=C(Cc1ccc(OCCCCCNC[C@H](O)c2ccc(O)c3[nH]c(=O)ccc23)c(-c2ccccc2)c1)N1CCC(C(=O)O[C@H]2CN3CCC2CC3)(c2ccccc2)CC1 [Compound 15, (R)-Quinuclidin-3-yl 1-(2-(6-((5-(((R)-2-hydroxy-2-(8-hydroxy-2-oxo-1,2-dihydroquinolin-5-yl)ethyl)amino)pentyl)oxy)-[1,1′-biphenyl]-3-yl)acetyl)-4-phenylpiperidine-4-carboxylate] | < 1 nM | > 10 nM
2 | O=C(Cc1ccc(OCc2ccc(CNC[C@H](O)c3ccc(O)c4[nH]c(=O)ccc34)cc2)cc1)N1CC(C(=O)O[C@H]2CN3CCC2CC3)(c2ccccc2)C1 [Compound 15A, (R)-Quinuclidin-3-yl 1-(2-(4-((4-((((R)-2-hydroxy-2-(8-hydroxy-2-oxo-1,2-dihydroquinolin-5-yl)ethyl)amino)methyl)benzyl)oxy)phenyl)acetyl)-3-phenylazetidine-3-carboxylate] | < 1 nM | < 1 nM
3 | O=C(CCc1ccc(OCCCCCNC[C@H](O)c2ccc(O)c3[nH]c(=O)ccc23)c(-c2ccccc2)c1)N1CCC(C(=O)O[C@H]2CN3CCC2CC3)(c2ccccc2)CC1 [Compound 16, (R)-Quinuclidin-3-yl 1-(3-(6-((5-(((R)-2-hydroxy-2-(8-hydroxy-2-oxo-1,2-dihydroquinolin-5-yl)ethyl)amino)pentyl)oxy)-[1,1′-biphenyl]-3-yl)propanoyl)-4-phenylpiperidine-4-carboxylate] | < 1 nM | 1 to 10 nM
4 | O=C(NCc1ccc(CCNC[C@H](O)c2ccc(O)c3[nH]c(=O)ccc23)cc1)c1ccc(C(=O)N2CC(C(=O)O[C@H]3CN4CCC3CC4)(c3ccccc3)C2)cc1 [Compound 16A, (R)-Quinuclidin-3-yl 1-(4-((4-(2-(((R)-2-hydroxy-2-(8-hydroxy-2-oxo-1,2-dihydroquinolin-5-yl)ethyl)amino)ethyl)benzyl)carbamoyl)benzoyl)-3-phenylazetidine-3-carboxylate] | < 1 nM | < 1 nM
5 | Cc1cc(CCC(=O)N2CCC(C(=O)O[C@H]3CN4CCC3CC4)(c3ccccc3)CC2)ccc1OCCCCCNC[C@H](O)c1ccc(O)c2[nH]c(=O)ccc12 [Compound 17, (R)-Quinuclidin-3-yl 1-(3-(4-((5-(((R)-2-hydroxy-2-(8-hydroxy-2-oxo-1,2-dihydroquinolin-5-yl)ethyl)amino)pentyl)oxy)-3-methylphenyl)propanoyl)-4-phenylpiperidine-4-carboxylate] | < 1 nM | < 1 nM
6 | O=C(NCc1ccc(C(=O)N2CC(C(=O)O[C@H]3CN4CCC3CC4)(c3ccccc3)C2)cc1)c1ccc(CNC[C@H](O)c2ccc(O)c3[nH]c(=O)ccc23)cc1 [Compound 17A, (R)-Quinuclidin-3-yl 1-(4-((4-((((R)-2-hydroxy-2-(8-hydroxy-2-oxo-1,2-dihydroquinolin-5-yl)ethyl)amino)methyl)benzamido)methyl)benzoyl)-3-phenylazetidine-3-carboxylate] | < 1 nM | < 1 nM
7 | Cc1cc(/C=C/C(=O)N2CCC(C(=O)O[C@H]3CN4CCC3CC4)(c3ccccc3)CC2)ccc1OCCCCCNC[C@H](O)c1ccc(O)c2[nH]c(=O)ccc12 [Compound 18, (R)-Quinuclidin-3-yl 1-((E)-3-(4-((5-(((R)-2-hydroxy-2-(8-hydroxy-2-oxo-1,2-dihydroquinolin-5-yl)ethyl)amino)pentyl)oxy)-3-methylphenyl)acryloyl)-4-phenylpiperidine-4-carboxylate] | < 1 nM | < 1 nM
8 | O=C(c1ccc(OCCCCNC[C@H](O)c2ccc(O)c3[nH]c(=O)ccc23)cc1)N1CC(C(=O)O[C@H]2CN3CCC2CC3)(c2ccccc2)C1 [Compound 18A, (R)-Quinuclidin-3-yl 1-(4-(4-(((R)-2-hydroxy-2-(8-hydroxy-2-oxo-1,2-dihydroquinolin-5-yl)ethyl)amino)butoxy)benzoyl)-3-phenylazetidine-3-carboxylate] | < 1 nM | 1 to 10 nM

Source: patent publication US9662323B2, “Compounds having muscarinic receptor antagonist and beta2 adrenergic receptor agonist activity” (CHIESI FARMACEUTICI S.p.A., priority 2015, dated 2017)
